SMILES strings stand for the structures.

This note sets out measurements from patent US11884670B1, “Pyrido[4′,3′:4,5]pyrrolo[3,2-c][2,7]naphthyridin-10-one compounds as CK2 inhibitors” (KING FAISAL UNIVERSITY, priority 2023, dated 2024).

Assay [1] concerns PC3 (prostate). The assay is described as follows: In vitro cytotoxic activity (MTT) assay, PC3. Format: cell-based. As to conditions: Homo sapiens, Prostate cell; PC3 (prostate) cells, exposed for 96 hours; read-out: IC50, concentration eliciting 50% inhibition of cell proliferation. The method, then: (§1) Compounds 1-16 were screened for their in vitro cytotoxic activity utilizing a 3-(4,5-dimethyl-thiazol-2-yl)-2,5-diphenyltetrazolium bromide (MTT) assay against selected cancer human cell lines consisting of PC3 (prostate), HCT116 (colon), A375 (melanoma), H1299 (lung), MIAPaCa-2 (pancreas), HL60 (leukemia), MCF7 (breast), MDA-MB-231 (breast) (T. Mosmann, J. Immunol. Meth., 1983, 65, 55-63). The cells were cultured at 37° C. in RMPI1640 medium supplemented with 10% fetal bovine serum, 50 IU/mL penicillin, and 50 μg/mL streptomycin in a 5% CO2 incubator. All cells were sub-cultured 3 times/week by trypsinisation. Viable cells were seeded and allowed to adhere for 12 h before a test drug was added in 96-well plates at an initial density of 1.0×10^5 cells/mL. Tumour cell lines were separately exposed to various concentrations of the tested compounds followed by incubation at a temperature of 37° C. during 96 h inside a medium of fresh RMPI 1640. Cells were subsequently incubated at 37° C. using MTT at 0.5 mg/mL during 4 h. After removal of supernatant, formazan crystals were dissolved in isopropanol and the optical density was measured at 570 nm. CX-4945 was used as a positive control.

The subject of assay [2] is HCT116 (colon). Nature of the assay: In vitro cytotoxic activity (MTT) assay, HCT116. The format is cell-based. As to conditions: Homo sapiens, HCT-116; HCT116 (colon) cells, exposed for 96 hours; read-out: IC50, concentration eliciting 50% inhibition of cell proliferation. The method, then: as §1
Assay [3] relates to A375 (melanoma). Nature of the assay: In vitro cytotoxic activity (MTT) assay, A375. The format is cell-based. As to conditions: Homo sapiens, A-375; A375 (melanoma) cells, exposed for 96 hours; read-out: IC50, concentration eliciting 50% inhibition of cell proliferation. As for the experimental part: as §1
Assay [4] concerns H1299 (lung). The assay is described as follows: In vitro cytotoxic activity (MTT) assay, H1299. Format: cell-based. Conditions: Homo sapiens, NCI-H1299; H1299 (lung) cells, exposed for 96 hours; read-out: IC50, concentration eliciting 50% inhibition of cell proliferation. The method, then:
as §1

Assay [5] relates to MIAPaCa-2 (pancreas). The assay is described as follows: In vitro cytotoxic activity (MTT) assay, MIAPaCa-2. Format: cell-based. Conditions: Homo sapiens, MIA PaCa-2; MIAPaCa-2 (pancreas) cells, exposed for 96 hours; read-out: IC50, concentration eliciting 50% inhibition of cell proliferation. The method, then:
as §1

In assay [6] the test system is HL60 (leukemia). Nature of the assay: In vitro cytotoxic activity (MTT) assay, HL60. Conditions: Homo sapiens, HL-60; HL60 (leukemia) cells, exposed for 96 hours; read-out: IC50, concentration eliciting 50% inhibition of cell proliferation. Format: cell-based. The method, then:
as §1

For assay [7], the system named is MCF7 (breast). The assay is described as follows: In vitro cytotoxic activity (MTT) assay, MCF7. Format: cell-based. As to conditions: Homo sapiens; MCF7 (breast) cells, exposed for 96 hours; read-out: IC50, concentration eliciting 50% inhibition of cell proliferation. The method, then: as §1
The subject of assay [8] is MDA-MB-231 (breast). Nature of the assay: In vitro cytotoxic activity (MTT) assay, MDA-MB-231. Format: cell-based. As to conditions: Homo sapiens; MDA-MB-231 (breast) cells, exposed for 96 hours; read-out: IC50, concentration eliciting 50% inhibition of cell proliferation. As for the experimental part:
as §1

Assay [9] deals with T1, recombinant human CK2 (RRββ-holoenzyme) (Homo sapiens, UniProt P68400).
T1 construct: purchased Millipore
T1 sequence (P68400 whole entry): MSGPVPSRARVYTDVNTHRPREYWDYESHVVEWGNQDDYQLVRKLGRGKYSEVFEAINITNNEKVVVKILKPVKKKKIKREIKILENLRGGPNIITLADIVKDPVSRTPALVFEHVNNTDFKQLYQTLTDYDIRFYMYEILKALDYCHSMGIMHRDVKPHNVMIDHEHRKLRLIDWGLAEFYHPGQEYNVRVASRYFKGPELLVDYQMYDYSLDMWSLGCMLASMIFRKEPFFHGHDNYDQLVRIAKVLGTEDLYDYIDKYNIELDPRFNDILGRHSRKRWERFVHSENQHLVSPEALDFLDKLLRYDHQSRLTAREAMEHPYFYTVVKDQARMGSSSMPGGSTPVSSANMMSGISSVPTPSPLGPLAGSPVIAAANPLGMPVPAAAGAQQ
T1 sequence (P67870 whole entry partner): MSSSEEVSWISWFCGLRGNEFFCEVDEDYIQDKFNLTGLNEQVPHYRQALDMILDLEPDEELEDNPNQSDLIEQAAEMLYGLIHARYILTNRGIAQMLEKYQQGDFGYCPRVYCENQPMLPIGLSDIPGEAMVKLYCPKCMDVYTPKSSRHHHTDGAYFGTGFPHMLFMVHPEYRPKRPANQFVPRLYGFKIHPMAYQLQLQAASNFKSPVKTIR
The assay is described as follows: CK2 kinase assay (33P-ATP, substrate peptide RRRDDDSDDD). Format: biochemical. As to conditions: final ATP concentration 15 μM, 10 min at 30° C.; read-out: protein kinase CK2 IC50. The method, then: CK2 Kinase Assay was conducted using the protocol as described in Pierre F. et al; J. Med. Chem. 2011, 54, 635-654. The tested compounds in aqueous solution were added at a volume of 10 μL to a reaction mixture comprising 10 μL of assay dilution buffer (ADB; 20 mM MOPS, pH 7.2, 25 mM β-glycerol phosphate, 5 mM EGTA, 1 mM sodium orthovanadate, and 1 mM dithiothreitol), 10 μL of substrate peptide (RRRDDDSDDD, dissolved in ADB at a concentration of 1 mM), 10 μL of recombinant human CK2 (RRββ-holoenzyme, 25 ng dissolved in ADB; Millipore). Reactions were initiated by the addition of 10 μL of ATP solution (90% 75 mMMgCl2, 75 μM ATP (final ATP concentration: 15 μM) dissolved in ADB; 10% [γ-33P] ATP (stock 1 mCi/100 μL; 3000 Ci/mmol (Perkin-Elmer) and maintained for 10 min at 30° C. The reactions were quenched with 100 μL of 0.75% phosphoric acid and then transferred to and filtered through a phosphor cellulose filter plate (Millipore). After washing each well five times with 0.75% phosphoric acid, the plate was dried under vacuum for 5 min and, following the addition of 15 μL of scintillation fluid to each well, the residual radioactivity was measured using a Wallac […] counter. The IC50 values were derived from eight concentrations of test inhibitors.

For `O=c1[nH]ccc2c1[nH]c1c3ccncc3c(Nc3cccc(Cl)c3)nc21` [Compound 1, 5-((3-chlorophenyl)amino)-9,11-dihydro-10H-pyrido[4′,3′:4,5]pyrrolo[3,2-c][2,7]naphthyridin-10-one], the IC50 in assay [1] is 2.1 µM; in [2] it was 1.9 µM; in assay [3] it was 3.3 µM; in assay [4], 1 µM; in [5] it was 1.7 µM; in assay [6], 3.4 µM. The IC50 in [7] was 6.2 µM; in [8] it was 4.8 µM; in assay [9] it was 0.038 µM.
